Measured values as given in patent US20240391862A1, “(1,4,5-TRISUBSTITUTED-1H-PYRAZOL-3-YL)OXY-2-ALKOXY ALKYL ACIDS AND THEIR DERIVATIVES, THEIR SALTS AND THEIR USE AS HERBICIDAL AGENTS” (Bayer AKtiengesellschaft, priority 2021, published 2024).

Legend:
ZEAMX = test: Post-emergence herbicidal effect and crop plant compatibility, greenhouse pot test; type: in vivo, Zea mays; conditions: one-leaf stage, rated visually after about 3 weeks vs untreated controls
Excerpt: (§1) • ALOMY: Alopecurus myosuroides SETVI: Setaria viridis • AVEFA: Avena fatua POLCO: Fallopia convolvulus • AMARE: Amaranthus retroflexus ECHCG: Echinochloa crus-galli • LOLRJ: Lolium rigidum STEME: Stellaria media • VERPE: Veronica persica MATIN: Tripleurospermum inodorum • DIGSA: Digitaria sanguinalis ABUTH: Abutylon threophrasti • TRZAS: Triticum aestivum VIOTR: Viola tricolor • BRSNW: Brassica napus ZEAMX: Zea mays • PHBPU: Ipomoea purpurea GLXMA: Glycine max • ORYSA: Oryza sativa HORMU: Hordeum murinum
(§2) Seeds of monocotyledonous and dicotyledonous weeds and crop plants are placed in sandy loam in plastic or organic planting pots, covered with soil and cultivated in a greenhouse under controlled growth conditions. 2 to 3 weeks after sowing, the trial plants are treated at the one-leaf stage. The compounds of the invention, formulated in the form of wettable powders (WP) or as emulsion concentrates (EC), are then sprayed onto the green parts of the plants as aqueous suspension or emulsion with addition of 0.5% additive at a water application rate of 600 l/ha (converted). After the test plants have been kept in the greenhouse under optimum growth conditions for about 3 weeks, the activity of the preparations is rated visually in comparison to untreated controls. For example, 100% activity=the plants have died, 0% activity=like control plants.
(§3) Tables 20a to 38c below show the effects/crop compatibilities of selected compounds of the general formula (I) on various harmful plants at an application rate corresponding to 20 to 320 g/ha, which were obtained by the trial procedure specified above.

ABUTH = test: Post-emergence herbicidal effect, greenhouse pot test; type: in vivo, Abutilon theophrasti; conditions: visual rating about 3 weeks after treatment
Procedure, shortened: (§4)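 Visual % activity scored roughly 3 weeks post-spray against untreated plants, where 100% means death and 0% equals control. Plants were treated at the one-leaf stage, 2 to 3 weeks after sowing in sandy loam, at 20 to 320 g/ha.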

ALOMY = test: as above; type: in vivo, Alopecurus myosuroides
Procedure, shortened: as §4

AVEFA = test: as above; type: in vivo, Avena fatua; conditions: visual rating about 3 weeks after treatment
Procedure, shortened: as §4

DIGSA = test: as above; type: in vivo, Digitaria sanguinalis; conditions: 320 g/ha, visual rating about 3 weeks after treatment
Procedure, shortened: as §4

ECHCG = test: as above; type: in vivo, Echinochloa crus-galli
Procedure, shortened: as §4

LOLRI = test: as above; type: in vivo, Lolium rigidum
Excerpt: as §1, §2, §3

MATIN = test: as above; type: in vivo, Tripleurospermum inodorum
Procedure, shortened: as §4

PHBPU = test: as above; type: in vivo, Ipomoea purpurea
Procedure, shortened: as §4

POLCO = test: as above; type: in vivo, Fallopia convolvulus
Procedure, shortened: as §4

SETVI = test: as above; type: in vivo, Setaria viridis
Procedure, shortened: as §4

VERPE = test: as above; type: in vivo, Veronica persica
Procedure, shortened: as §4

VIOTR = test: as above; type: in vivo, Viola tricolor
Procedure, shortened: as §4

KCHSC = test: as above; type: in vivo; conditions: for pest or weed control at 80 g/ha / pest or weed control at 320 g/ha: 504 h, read-out: Post-emergence effect against KCHSC in %
Experimental: as §2, with “plants. Tables 20a to 38c below show the effects/crop compatibilities of selected compounds of the general formula (I) on various harmful plants at an application rate corresponding to 20 to 320 g/ha, which were obtained by the trial procedure specified above.” for “plants.”

[1] = 320 g/ha, visual rating about 3 weeks after treatment
[2] = Avena fatua, 504 h, read-out: Post-emergence effect against AVEFA

COC(=O)CCOC(=O)C(OC)Oc1nn(-c2ncccc2F)c(-c2cncc(F)c2)c1C1CC1 (single isomer, unassigned) [Example I-77]
0%: Post-emergence effect at 20 g/ha against ZEAMX in % (ZEAMX; 20 g/ha) | Post-emergence effect at 80 g/ha against ZEAMX in % (ZEAMX; 80 g/ha)
80%: Post-emergence effect against ABUTH (ABUTH; 80 g/ha) | Post-emergence effect against ABUTH (ABUTH; 320 g/ha) | Post-emergence effect against MATIN in % (MATIN; 80 g/ha) | Post-emergence effect against MATIN in % (MATIN; 320 g/ha) | Post-emergence effect against KCHSC in % (KCHSC; 20 g/ha)
90%: Post-emergence effect against ALOMY (ALOMY; [1]) | Post-emergence effect against AVEFA (AVEFA; 80 g/ha) | Post-emergence effect against AVEFA (AVEFA; 320 g/ha) | Post-emergence effect against DIGSA (DIGSA) | Post-emergence effect against ECHCG in % (ECHCG; 80 g/ha) | Post-emergence effect against ECHCG in % (ECHCG; 320 g/ha) | Post-emergence effect against LOLRI in % (LOLRI; 80 g/ha) | Post-emergence effect against LOLRI in % (LOLRI; 320 g/ha) | Post-emergence effect against PHBPU in % (PHBPU; 80 g/ha) | Post-emergence effect against PHBPU in % (PHBPU; 320 g/ha) | Post-emergence effect against POLCO in % (POLCO; 80 g/ha) | Post-emergence effect against POLCO in % (POLCO; 320 g/ha) | Post-emergence effect against SETVI in % (SETVI; 320 g/ha) | Post-emergence effect against VERPE in % (VERPE; 320 g/ha) | Post-emergence effect against VIOTR in % (VIOTR; 80 g/ha) | Post-emergence effect against VIOTR in % (VIOTR; 320 g/ha) | Post-emergence effect against KCHSC in % (KCHSC; 80 g/ha) | Post-emergence effect against KCHSC in % (KCHSC; 320 g/ha)

CCOC(=O)C(OC)Oc1nn(-c2ncccc2F)c(-c2ccc(F)nc2)c1C1CC1 (stereo not shown) [Example I-58]
0%: plant injury at 20 g/ha (ZEAMX; Zea mays, 504 h, 20 g/ha, read-out: Post-emergence effect at 20 g/ha against ZEAMX in %)
80%: pest or weed control at 80 g/ha (ABUTH; Abutilon theophrasti, 504 h, 80 g/ha, read-out: Post-emergence effect against ABUTH) | pest or weed control at 320 g/ha (ABUTH; Abutilon theophrasti, 504 h, 320 g/ha, read-out: Post-emergence effect against ABUTH) | pest or weed control at 20 g/ha (AVEFA; [2]) | pest or weed control at 80 g/ha (AVEFA; Avena fatua, 504 h, 80 g/ha, read-out: Post-emergence effect against AVEFA) | pest or weed control at 320 g/ha (DIGSA; Digitaria sanguinalis, 504 h, read-out: Post-emergence effect against DIGSA) | pest or weed control at 80 g/ha (PHBPU; Ipomoea purpurea, 504 h, 80 g/ha, read-out: Post-emergence effect against PHBPU in %) | pest or weed control at 80 g/ha (POLCO; Fallopia convolvulus, 504 h, 80 g/ha, read-out: Post-emergence effect against POLCO in %) | pest or weed control at 320 g/ha (POLCO; Fallopia convolvulus, 504 h, 320 g/ha, read-out: Post-emergence effect against POLCO in %) | pest or weed control at 320 g/ha (VERPE; Veronica persica, 504 h, 320 g/ha, read-out: Post-emergence effect against VERPE in %) | pest or weed control at 80 g/ha (VIOTR; Viola tricolor, 504 h, 80 g/ha, read-out: Post-emergence effect against VIOTR in %) | pest or weed control at 320 g/ha (VIOTR; Viola tricolor, 504 h, 320 g/ha, read-out: Post-emergence effect against VIOTR in %)
90%: pest or weed control at 320 g/ha (ALOMY; Alopecurus myosuroides, 504 h, 320 g/ha, visual rating about 3 weeks after treatment, read-out: Post-emergence effect against ALOMY) | pest or weed control at 320 g/ha (AVEFA; Avena fatua, 504 h, 320 g/ha, read-out: Post-emergence effect against AVEFA) | pest or weed control at 80 g/ha (ECHCG; Echinochloa crus-galli, 504 h, 80 g/ha, read-out: Post-emergence effect against ECHCG in %) | pest or weed control at 320 g/ha (ECHCG; Echinochloa crus-galli, 504 h, 320 g/ha, read-out: Post-emergence effect against ECHCG in %) | pest or weed control at 80 g/ha (LOLRI; Lolium rigidum, 504 h, 80 g/ha, read-out: Post-emergence effect against LOLRI in %) | pest or weed control at 320 g/ha (LOLRI; Lolium rigidum, 504 h, 320 g/ha, read-out: Post-emergence effect against LOLRI in %) | pest or weed control at 320 g/ha (PHBPU; Ipomoea purpurea, 504 h, 320 g/ha, read-out: Post-emergence effect against PHBPU in %) | pest or weed control at 320 g/ha (SETVI; Setaria viridis, 504 h, 320 g/ha, read-out: Post-emergence effect against SETVI in %) | pest or weed control at 80 g/ha (KCHSC; 80 g/ha) | pest or weed control at 320 g/ha (KCHSC; 320 g/ha)
10%: plant injury at 80 g/ha (ZEAMX; Zea mays, 504 h, 80 g/ha, read-out: Post-emergence effect at 80 g/ha against ZEAMX in %)

COC(=O)C(OC)Oc1nn(-c2ncccc2F)c(-c2ccc(F)nc2)c1C1CC1 (stereo not shown) [Example I-108]
100%: Post-emergence effect against ALOMY (ALOMY; [1])
90%: Post-emergence effect against ABUTH (ABUTH; 320 g/ha) | pest or weed control at 80 g/ha (ALOMY; Alopecurus myosuroides, 504 h, 80 g/ha, visual rating about 3 weeks after treatment, read-out: Post-emergence effect against ALOMY) | Post-emergence effect against AVEFA (AVEFA; 80 g/ha) | Post-emergence effect against AVEFA (AVEFA; 320 g/ha) | Post-emergence effect against DIGSA (DIGSA) | Post-emergence effect against ECHCG in % (ECHCG; 80 g/ha) | Post-emergence effect against ECHCG in % (ECHCG; 320 g/ha) | Post-emergence effect against LOLRI in % (LOLRI; 320 g/ha) | Post-emergence effect against PHBPU in % (PHBPU; 320 g/ha) | Post-emergence effect against SETVI in % (SETVI; 320 g/ha) | Post-emergence effect against VIOTR in % (VIOTR; 80 g/ha) | Post-emergence effect against VIOTR in % (VIOTR; 320 g/ha) | Post-emergence effect against KCHSC in % (KCHSC; 320 g/ha) | pest or weed control at 80 g/ha (KCHSC; 80 g/ha)
0%: Post-emergence effect at 20 g/ha against ZEAMX in % (ZEAMX; 20 g/ha) | Post-emergence effect at 80 g/ha against ZEAMX in % (ZEAMX; 80 g/ha) | plant injury at 320 g/ha (ZEAMX; Zea mays, 504 h, 320 g/ha, read-out: Post-emergence effect at 320 g/ha against ZEAMX in %)
80%: Post-emergence effect against ABUTH (ABUTH; 80 g/ha) | Post-emergence effect against PHBPU in % (PHBPU; 80 g/ha) | Post-emergence effect against POLCO in % (POLCO; 320 g/ha) | Post-emergence effect against VERPE in % (VERPE; 320 g/ha) | pest or weed control at 80 g/ha (VERPE; Veronica persica, 504 h, 80 g/ha, read-out: Post-emergence effect against VERPE in %)

COC(=O)C(OC)Oc1nn(-c2cc(F)ccc2F)c(-c2cncc(F)c2)c1C1CC1 (stereo not shown) [Example I-112]
90%: Post-emergence effect against ALOMY (ALOMY; 80 g/ha, visual rating about 3 weeks after treatment) | Post-emergence effect against ALOMY (ALOMY; [1]) | Post-emergence effect against AVEFA (AVEFA; 80 g/ha) | Post-emergence effect against AVEFA (AVEFA; 320 g/ha) | pest or weed control at 20 g/ha (AVEFA; [2]) | Post-emergence effect against ECHCG (ECHCG; 20 g/ha, visual rating about 3 weeks after treatment) | Post-emergence effect against ECHCG in % (ECHCG; 80 g/ha) | Post-emergence effect against ECHCG in % (ECHCG; 320 g/ha) | Post-emergence effect against LOLRI in % (LOLRI; 80 g/ha) | Post-emergence effect against LOLRI in % (LOLRI; 320 g/ha) | Post-emergence effect against PHBPU in % (PHBPU; 20 g/ha) | Post-emergence effect against PHBPU in % (PHBPU; 80 g/ha) | Post-emergence effect against PHBPU in % (PHBPU; 320 g/ha)
80%: Post-emergence effect against ABUTH (ABUTH; 80 g/ha) | Post-emergence effect against ABUTH (ABUTH; 320 g/ha) | pest or weed control at 20 g/ha (ABUTH; Abutilon theophrasti, 504 h, 20 g/ha, read-out: Post-emergence effect against ABUTH) | Post-emergence effect at 20 g/ha against ALOMY in % (ALOMY; 20 g/ha, one-leaf stage, rated visually after about 3 weeks vs untreated controls) | Post-emergence effect against DIGSA (DIGSA) | Post-emergence effect against MATIN in % (MATIN; 20 g/ha) | Post-emergence effect against MATIN in % (MATIN; 80 g/ha) | Post-emergence effect against MATIN in % (MATIN; 320 g/ha) | Post-emergence effect against POLCO in % (POLCO; 80 g/ha) | Post-emergence effect against POLCO in % (POLCO; 320 g/ha) | Post-emergence effect against SETVI in % (SETVI; 80 g/ha) | Post-emergence effect against SETVI in % (SETVI; 320 g/ha) | Post-emergence effect against VERPE in % (VERPE; 20 g/ha) | Post-emergence effect against VERPE in % (VERPE; 80 g/ha) | Post-emergence effect against VERPE in % (VERPE; 320 g/ha) | Post-emergence effect against VIOTR in % (VIOTR; 80 g/ha) | Post-emergence effect against VIOTR in % (VIOTR; 320 g/ha) | pest or weed control at 20 g/ha (VIOTR; Viola tricolor, 504 h, 20 g/ha, read-out: Post-emergence effect against VIOTR in %) | pest or weed control at 320 g/ha (KCHSC; 320 g/ha)
